Our source for the IC50, EC50 and AC50 values is ChEMBL document CHEMBL1201862, “PubChem BioAssay data set” (2004).

Activity calls are given as the source filed them.

Test [1] deals with T1, High affinity choline transporter 1 (Homo sapiens, UniProt Q9GZV3).
T1 sequence (Q9GZV3 whole entry): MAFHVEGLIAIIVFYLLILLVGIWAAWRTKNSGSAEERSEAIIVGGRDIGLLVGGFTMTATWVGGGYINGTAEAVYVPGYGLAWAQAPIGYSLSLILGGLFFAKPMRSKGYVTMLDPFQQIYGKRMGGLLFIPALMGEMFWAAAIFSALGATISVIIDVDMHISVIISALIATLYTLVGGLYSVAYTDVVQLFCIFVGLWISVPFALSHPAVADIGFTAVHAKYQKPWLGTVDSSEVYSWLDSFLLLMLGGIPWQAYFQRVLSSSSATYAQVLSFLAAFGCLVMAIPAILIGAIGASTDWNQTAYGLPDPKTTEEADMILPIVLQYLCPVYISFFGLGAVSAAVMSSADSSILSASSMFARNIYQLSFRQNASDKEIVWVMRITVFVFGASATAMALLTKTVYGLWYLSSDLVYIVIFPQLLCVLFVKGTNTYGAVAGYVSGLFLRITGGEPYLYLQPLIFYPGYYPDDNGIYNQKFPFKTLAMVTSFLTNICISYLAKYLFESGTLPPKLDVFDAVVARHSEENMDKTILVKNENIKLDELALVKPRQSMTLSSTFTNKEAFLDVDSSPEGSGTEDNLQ
The experiment in a line: CHT inhibitors, dose response, cell-based, 5-point CRC, membrane potential dye (AID 504840). Type of test: functional.

Test [2] addresses T2, Rac GTPase-activating protein 1 (Homo sapiens, UniProt Q9H0H5).
T2 sequence (Q9H0H5 whole entry): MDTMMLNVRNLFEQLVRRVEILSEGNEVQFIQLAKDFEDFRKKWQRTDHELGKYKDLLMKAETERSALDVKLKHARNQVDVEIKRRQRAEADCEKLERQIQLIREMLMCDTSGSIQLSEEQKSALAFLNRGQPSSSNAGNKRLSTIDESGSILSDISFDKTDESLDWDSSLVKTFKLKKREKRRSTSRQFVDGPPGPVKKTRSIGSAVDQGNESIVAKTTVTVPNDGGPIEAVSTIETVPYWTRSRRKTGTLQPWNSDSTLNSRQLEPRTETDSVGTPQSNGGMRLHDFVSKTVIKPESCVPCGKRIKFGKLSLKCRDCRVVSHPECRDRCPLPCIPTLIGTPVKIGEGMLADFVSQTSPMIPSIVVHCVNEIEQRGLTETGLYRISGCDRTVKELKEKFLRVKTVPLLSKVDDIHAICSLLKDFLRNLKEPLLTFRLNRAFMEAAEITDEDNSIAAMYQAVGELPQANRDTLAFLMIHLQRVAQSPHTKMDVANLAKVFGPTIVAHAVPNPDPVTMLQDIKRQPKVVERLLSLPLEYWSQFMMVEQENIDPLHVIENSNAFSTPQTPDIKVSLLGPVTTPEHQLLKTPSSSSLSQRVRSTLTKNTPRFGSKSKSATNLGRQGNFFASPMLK
The experiment in a line: MgcRacGAP GTPase-activating activity inhibitors, confirmation, biochemical, ADP Hunter fluorescence, primary and confirmatory (AID 624330). It counts as functional.

The target of test [3] is T3, Corticotropin-releasing factor receptor 2/Corticotropin-releasing factor-binding protein (Homo sapiens, UniProt P24387+Q13324).
T3 sequence (Q13324 whole entry): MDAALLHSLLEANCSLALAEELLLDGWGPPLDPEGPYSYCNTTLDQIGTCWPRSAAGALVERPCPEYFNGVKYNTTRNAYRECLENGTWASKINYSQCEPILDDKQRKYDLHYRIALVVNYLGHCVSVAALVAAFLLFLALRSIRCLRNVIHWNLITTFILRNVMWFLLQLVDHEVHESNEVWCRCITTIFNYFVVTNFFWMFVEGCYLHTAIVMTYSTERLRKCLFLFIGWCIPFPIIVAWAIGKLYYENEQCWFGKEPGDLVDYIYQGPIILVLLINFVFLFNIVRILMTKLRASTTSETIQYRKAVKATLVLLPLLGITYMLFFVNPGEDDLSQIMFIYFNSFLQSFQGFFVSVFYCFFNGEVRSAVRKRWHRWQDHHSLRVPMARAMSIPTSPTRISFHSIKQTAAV
T3 sequence (P24387 whole entry): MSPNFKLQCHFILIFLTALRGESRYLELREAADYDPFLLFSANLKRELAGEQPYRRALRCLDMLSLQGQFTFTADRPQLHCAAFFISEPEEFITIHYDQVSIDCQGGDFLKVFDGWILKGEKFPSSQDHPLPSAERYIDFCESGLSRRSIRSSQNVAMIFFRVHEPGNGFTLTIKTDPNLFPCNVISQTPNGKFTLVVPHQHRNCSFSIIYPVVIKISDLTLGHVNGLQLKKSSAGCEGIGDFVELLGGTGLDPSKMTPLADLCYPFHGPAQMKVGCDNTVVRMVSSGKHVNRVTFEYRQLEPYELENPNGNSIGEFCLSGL
Description: Dose Response confirmation of uHTS hits for small molecule antagonists of the CRF-binding protein and CRF-R2 receptor complex. Type of test: functional. The settings on record: read-out: IC50_Mean.

The target of test [4] is T3, Corticotropin-releasing factor receptor 2/Corticotropin-releasing factor-binding protein. Description: activators of CRF receptor 2 with binding protein – uHTS hits, confirmation (AID 602473). It counts as functional. The settings on record: read-out: EC50_Mean.
In test [5] the test system is BJ. Description: cytotoxicity toward BJ-TERT fibroblasts, dose response, cell-based, RAS-independent, luminescence (AID 1933). Type of test: functional. As to conditions: Homo sapiens.
The subject of test [6] is BJ. Description: cells. It counts as functional, cell-based. As to conditions: Homo sapiens.
In test [7] the test system is BJ. The experiment in a line: cytotoxicity toward BJ-TERT-LT-ST fibroblasts, dose response, cell-based, RAS-independent, luminescence (AID 1935).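 Note: BJ fibroblasts immortalized with TERT plus LT and ST oncogenes.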 The settings on record: Homo sapiens. It counts as functional.
Test [8] in a line: cytotoxicity toward DRD oncogenic fibroblasts, dose response, cell-based, non-viral oncogenic, luminescence (AID 1934). The settings on record: Homo sapiens. It counts as functional.
For test [9], the system named is Streptococcus sp. 'group A'. The experiment in a line: growth inhibition of control SK(-) GAS strain, dose response, counter-screen for streptokinase expression inhibitor project, luminescence, kanamycin, BacTiterGlo, confirmation (AID 1900). It counts as functional, organism-based. (In general: A counterscreen serves to expose hits that act by an unwanted route or on another target.)

The target in test [10] is T4, Streptokinase A (Streptococcus pyogenes serotype M1, UniProt P10520).
T4 sequence (P10520 whole entry): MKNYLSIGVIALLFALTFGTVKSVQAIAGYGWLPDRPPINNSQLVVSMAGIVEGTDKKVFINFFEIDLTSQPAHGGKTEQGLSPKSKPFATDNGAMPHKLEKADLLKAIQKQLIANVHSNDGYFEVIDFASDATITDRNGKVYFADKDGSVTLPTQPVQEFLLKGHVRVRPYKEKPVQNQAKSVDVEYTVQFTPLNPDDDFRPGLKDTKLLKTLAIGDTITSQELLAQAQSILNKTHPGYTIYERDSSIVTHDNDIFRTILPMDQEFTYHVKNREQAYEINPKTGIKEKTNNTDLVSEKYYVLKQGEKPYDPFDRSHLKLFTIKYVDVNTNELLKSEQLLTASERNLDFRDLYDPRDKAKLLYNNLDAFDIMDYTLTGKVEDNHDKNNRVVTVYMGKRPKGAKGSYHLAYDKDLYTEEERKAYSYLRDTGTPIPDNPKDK
The experiment in a line: S. pyogenes streptokinase expression inhibitors, potency, dose response, plasminogen activation absorbance, OD405 (AID 1914).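 Note: secreted streptokinase activity via plasminogen activation per viability signal from cell pellet.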 It counts as functional, Streptococcus pyogenes M1 GAS.

Test [11] in a line: inhibitors of intracellular T. cruzi replication, confirmation, NIH3T3 host cells, beta-gal luminescence (AID 2044).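 Note: intracellular parasites grown in NIH/3T3 mouse fibroblasts as host cells; luminescent beta-galactosidase reporter signal from transgenic T. cruzi replicating inside host cells; inhibitors lower the luminescence signal.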 It counts as functional, cell-based.
Test [12] is described as follows: cytotoxicity toward NIH3T3 fibroblasts, dose response, counter-screen, cell-based, ATP luminescence, mouse fibroblasts (AID 2010).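 Note: cells exposed to compound for about 90 hours before reading.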 It counts as functional.
In test [13] the test system is Streptococcus. Description: Group A Streptococcus viability loss, dose response, counter-screen for streptokinase expression inhibitor project, luminescence, BacTiterGlo (AID 1915).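 Note: potency for reduction of bacterial viability or growth.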 It counts as functional, organism-based.
The target of test [14] is Heat shock protein HSP 90-alpha (Homo sapiens, UniProt P07900). It counts as functional, organism-based.
In test [15] the target is Glyceraldehyde-3-phosphate dehydrogenase (Homo sapiens, UniProt P04406).
Chain of Glyceraldehyde-3-phosphate dehydrogenase (P04406 whole entry): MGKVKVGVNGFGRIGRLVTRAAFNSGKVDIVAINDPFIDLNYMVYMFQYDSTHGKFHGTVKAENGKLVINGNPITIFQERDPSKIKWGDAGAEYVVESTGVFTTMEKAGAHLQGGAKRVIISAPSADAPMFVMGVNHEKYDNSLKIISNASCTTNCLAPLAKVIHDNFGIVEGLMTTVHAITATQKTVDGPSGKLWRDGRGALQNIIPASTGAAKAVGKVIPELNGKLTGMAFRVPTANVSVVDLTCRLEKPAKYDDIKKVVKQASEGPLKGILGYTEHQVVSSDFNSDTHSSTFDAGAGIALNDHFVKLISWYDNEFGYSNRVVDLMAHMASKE
Test [16] is described as follows: HEK293T cytotoxicity, dose response, cytotoxicity control for miR-122 modulator project, cell-based, inhibitor set, cherry-pick, set 2 (AID 720697). It counts as functional.
The target of test [17] is Luciferin 4-monooxygenase (Photinus pyralis, UniProt P08659). The experiment in a line: firefly luciferase enzyme inhibitors, dose response, biochemical, luminescence (AID 1891).
Chain of Luciferin 4-monooxygenase (P08659 whole entry): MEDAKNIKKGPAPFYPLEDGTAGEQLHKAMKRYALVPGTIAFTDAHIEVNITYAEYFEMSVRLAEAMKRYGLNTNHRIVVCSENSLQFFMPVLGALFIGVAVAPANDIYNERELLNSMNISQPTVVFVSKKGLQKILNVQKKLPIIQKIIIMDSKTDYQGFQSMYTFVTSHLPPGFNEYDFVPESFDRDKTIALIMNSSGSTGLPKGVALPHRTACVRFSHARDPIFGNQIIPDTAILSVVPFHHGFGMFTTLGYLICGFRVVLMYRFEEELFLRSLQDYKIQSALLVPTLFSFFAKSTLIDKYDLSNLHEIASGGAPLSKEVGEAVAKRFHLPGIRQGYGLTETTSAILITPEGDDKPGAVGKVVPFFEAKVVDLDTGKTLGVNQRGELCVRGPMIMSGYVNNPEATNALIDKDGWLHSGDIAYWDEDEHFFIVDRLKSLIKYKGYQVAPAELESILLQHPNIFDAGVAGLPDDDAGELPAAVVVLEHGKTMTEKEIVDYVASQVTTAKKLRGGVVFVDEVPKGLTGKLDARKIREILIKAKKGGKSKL
Test [18] can be described thus: Luminescence Cell-Based Dose Confirmation HTS to Identify Inhibitors of Platelet Dense Granule Release. [Related pubchem assays: 1663 (Primary HTS), 1678 (Summary of Project)]. It counts as functional.

For `COc1cccc(CNc2ccc(N3CCC(C)CC3)cc2)c1OC`, the figures for the IC50 in test [1] and in test [2] were 13.2 µM (active) and 7.86 µM (active), respectively.
On to `CCc1cc([N+](=O)[O-])cc(CC)c1N`, for which the IC50 in [1] was 13.8 µM (active).
As for `COCCN1CC(=O)N(c2cccc(C)c2C)C(c2ccc(Cl)cc2)C1=O` (configuration not stated), the IC50 in test [3] is > 47.1 µM (inactive). Besides, the EC50 in test [4] was > 53 µM (inactive).
Take `CCC(C)NC(=O)Cn1cnc2sc(C)c(S(=O)(=O)N3CCCCC3)c2c1=O` (configuration not stated): the IC50 in test [3] is > 47.1 µM (inactive). Also, in test [4], the EC50 was > 53 µM (inactive).
Take `O=[N+]([O-])c1cccc(CSc2nnc3ccccn23)c1`: in [1], the IC50 is 16.6 µM (active).
Turning to `N#CC1=C2SCC(O)(c3ccccc3)N2C(=O)CC1c1ccccc1` (configuration not stated), the EC50 in test [5] was 4.26 µM (active); in test [6], 51.4 µM (active); in [7] it was 3.28 µM (active); in test [8] it was 3.01 µM (active).
On to `Cc1nn2c(NCc3ccccn3)cc(C(C)(C)C)nc2c1-c1ccccc1`, for which the EC50 in [9] was 3.41 µM (active); in [10], > 150 µM (not active); in test [11], 2.21 µM (active); in [12], > 60 µM (not active); in [13], 5.79 µM (active). Moreover, the AC50 in [14] is 1.78 µM (active).
As to `COc1cc2ccccc2cc1C(=O)Nc1ccc(S(=O)(=O)Nc2cc(C)on2)cc1`, the IC50 in test [1] was 13.8 µM (active).
As to `O=C1C(Cl)=C(N2CCN(c3ccccc3)CC2)C(=O)N1c1ccnc(Cl)c1`, the IC50 in test [15] was > 50 µM (inconclusive).
Regarding `CCOC(=O)C1CN(S(=O)(=O)c2ccccc2)CCN1S(=O)(=O)c1ccccc1` (configuration not stated), in test [16], the concentration at half-maximal activity (AC50) was 1.54 µM (active).
Turning to `CCn1cc(/C=C(\NC(=O)c2ccccc2F)C(=O)N2CCOCC2)c2ccccc21`, the IC50 in test [1] is 15.6 µM (active).
Regarding `COc1cc2c(cc1OC)-c1cc(NC3CCCCCC3)nc(=O)n1CC2`, the EC50 was > 112 µM (not active) in test [17] and 2.94 µM (active) in test [18]. Moreover, in test [1], the IC50 is 12.9 µM (active).
Regarding `Cc1ccc(C(=O)C(SC(C)(C)C)n2cncn2)cc1` (configuration not stated), the AC50 in test [14] is 3.99 µM (active).
With `CCOC(=O)c1ccc(NC(=O)C(=O)NCc2ccco2)cc1`, the EC50 in test [5], in test [6], in test [7] and in [8] was > 150 µM (not active) each time.
For `Cc1ccc(N2C(=O)C(Cl)=C(N3CCN(Cc4ccc5c(c4)OCO5)CC3)C2=O)cc1`, the IC50 in [15] is > 50 µM (inconclusive).
Consider `COc1ccccc1/C=C/C(=O)N1CCOCC1`, for which, in [3], the IC50 was > 47.1 µM (inactive). For the same molecule, the EC50 in test [4] is > 53 µM (inactive).
As to `CCc1nnc(NC(=O)CSc2nnnn2-c2cccc(C(C)=O)c2)s1`, the IC50 in test [3] was > 47.1 µM (inactive). In test [4], the EC50 was > 53 µM (inactive).
Take `CNc1nc(NCC2CCCCC2)c2sccc2n1`: in test [16], the AC50 is 3.63 µM (active).
On to `CCCC1CC(C#N)N(N(C)C)C1=C(C#N)C#N` (configuration not stated), for which the IC50 in [3] was > 47.1 µM (inactive). The EC50 in test [4] is > 53 µM (inactive).
Taken in the same sequence, the figures for `Cc1ccc(NC(=O)c2ncn(CCCNCC3CCCO3)n2)cc1C` (configuration not stated) were > 47.1 µM (inactive) and > 53 µM (inactive).
As to `COC(=O)C[C@@H]1CC[C@H]2[C@@H](COc3ccc(NC(=O)c4ccc(C(F)(F)F)cc4)cc3C(=O)N2C)O1`, the AC50 in [16] is 10 µM (active).
`Cc1cccc(NC(=O)Nc2ccc3c(c2)C(=O)N(C)[C@H]2CC[C@H](CC(=O)O)O[C@H]2CO3)c1`: in test [16], the half-maximal activity concentration (AC50) was 10.6 µM (active).

One may read the AC50 as the midpoint of the concentration-response curve, whichever way the signal moves.
